Test results reported in ChEMBL document CHEMBL3217408 (Medchemcomm, 2013).
The source made the active and inactive calls. The rule behind the calls is not given here.

Columns and labels:
[1] = target: T1, Transcriptional activator protein LasR (Pseudomonas aeruginosa (strain ATCC 15692 / PAO1 / 1C / PRS 101 / LMG12228)) (UniProt P25084); assay: Antagonist activity at LasR in Pseudomonas aeruginosa PAO1 assessed as inhibition of biofilm formation at 0.3 to 333 uM after 20 hrs by crystal violet staining assay
T1 sequence (whole entry): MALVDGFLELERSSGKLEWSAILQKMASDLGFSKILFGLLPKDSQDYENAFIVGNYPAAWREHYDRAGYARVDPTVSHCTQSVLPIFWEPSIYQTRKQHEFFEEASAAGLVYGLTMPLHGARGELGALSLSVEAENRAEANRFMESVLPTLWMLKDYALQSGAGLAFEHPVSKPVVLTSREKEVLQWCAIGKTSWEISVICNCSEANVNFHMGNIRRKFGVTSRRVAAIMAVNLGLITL

[2] = target: T1, Transcriptional activator protein LasR (Pseudomonas aeruginosa (strain ATCC 15692 / PAO1 / 1C / PRS 101 / LMG12228)); details: 200 uM
Description: Inhibition of LasR activation in Pseudomonas aeruginosa PAO1 harboring lasI promoter coupled to the luxCDABE luminescence system assessed as reduction in luminescence measured at 200 uM after 5 hrs

[3] = target: T1, Transcriptional activator protein LasR (Pseudomonas aeruginosa (strain ATCC 15692 / PAO1 / 1C / PRS 101 / LMG12228)); details: JP2, 200 uM
Description: Agonist activity at LasR in lasI-rhlI double mutant Pseudomonas aeruginosa JP2 harboring lasI promoter coupled to the luxCDABE box assessed as reduction in luminescence measured at 200 uM after 5 hrs

[4] = target: T1, Transcriptional activator protein LasR (Pseudomonas aeruginosa (strain ATCC 15692 / PAO1 / 1C / PRS 101 / LMG12228)); assay: Antagonist activity at LasR in Escherichia coli DH5a harboring reporter plasmid lasI-lacZ (pSC11) pJN105L plasmid assessed as inhibition of 3-oxo-C12-HSL induced protein activation by Miller assay method; details: Escherichia coli DH5[alpha]
Pseudomonas aeruginosa [5] = assay: Antibacterial activity against Pseudomonas aeruginosa PAO1 assessed as inhibition of pyocyanin production at 100 uM after 20 hrs; type: functional; details: PAO1, 20 h
[6] = target: T1, Transcriptional activator protein LasR (Pseudomonas aeruginosa (strain ATCC 15692 / PAO1 / 1C / PRS 101 / LMG12228)); details: 12 uM
Description: Antagonist activity at LasR in Pseudomonas aeruginosa PAO1 assessed as inhibition of biofilm formation at 12 uM after 20 hrs by crystal violet staining assay

[7] = target: T1, Transcriptional activator protein LasR (Pseudomonas aeruginosa (strain ATCC 15692 / PAO1 / 1C / PRS 101 / LMG12228)); assay: Binding affinity to LasR in Pseudomonas aeruginosa PAO1 at 50 to 100 uM after 24 hrs by gel electrophoresis
[8] = target: T1, Transcriptional activator protein LasR (Pseudomonas aeruginosa (strain ATCC 15692 / PAO1 / 1C / PRS 101 / LMG12228)); details: JP2, 50 uM
Description: Antagonist activity at LasR in lasI-rhlI double mutant Pseudomonas aeruginosa JP2 harboring lasI promoter coupled to the luxCDABE box assessed as reduction in C4-HSL induced luminescence measured at 50 uM after 5 hrs

[9] = target: T2, HTH-type quorum-sensing regulator RhlR (Pseudomonas aeruginosa (strain ATCC 15692 / PAO1 / 1C / PRS 101 / LMG12228)) (UniProt P54292); assay: Antagonist activity at RhlR in lasI-rhlI double mutant Pseudomonas aeruginosa PAO-JP2 harboring lasI promoter coupled to the luxCDABE box assessed as reduction in C4-HSL induced protein measured at 25 to 200 uM after 5 hrs
T2 sequence (whole entry): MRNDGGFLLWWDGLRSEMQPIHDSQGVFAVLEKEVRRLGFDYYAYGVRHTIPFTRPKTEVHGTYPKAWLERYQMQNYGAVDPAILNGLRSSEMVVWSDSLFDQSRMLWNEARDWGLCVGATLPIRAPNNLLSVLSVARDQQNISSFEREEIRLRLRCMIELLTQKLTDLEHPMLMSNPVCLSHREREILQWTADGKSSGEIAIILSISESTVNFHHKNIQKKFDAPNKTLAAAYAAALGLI

Pseudomonas aeruginosa [10] = assay: Growth inhibition of lasI-rhlI double mutant Pseudomonas aeruginosa PAO-JP2 harboring lasI promoter coupled to the luxCDABE box measured at >100 uM after 5 hrs; type: organism-based; details: in vivo

| Structure (SMILES) | inhibition [1] | inhibition [2] | inhibition [3] | inhibition [4] | inhibition at 100 µM (Pseudomonas aeruginosa [5]) [%] | inhibition [6] | Activity [7] | inhibition [8] | inhibition [9] | Activity (Pseudomonas aeruginosa [10]) |
| --- | --- | --- | --- | --- | --- | --- | --- | --- | --- | --- |
| O=C1C=C(Br)/C(=C/Br)O1 | Active |  |  |  |  |  |  |  |  |  |
| C[S+]([O-])CCCCN=C=S (stereo not given) [SULFORAPHANE] |  | Active | inactive | Dose-dependent effect | > 70 | Active | Active | Active | Active | Non-toxic |
